Laboratory results taken from ChEMBL document CHEMBL3832056, “DailyMed|setid=5ad109ec-1fff-498c-bc91-e2e5481122bc | RAMIPRIL- ramipril capsule|Lake Erie Medical DBA Quality Care Products LLC”.

Key:
[1] = test system: Homo sapiens; assay: Half-life of Ramiprilat, active metabolite of Ramipril, evaluated after oral administration of multiple doses of 5 mg Ramipril.; format: ADME, organism-based; conditions: in vivo, dose 5 to 10 mg, dosed compound id 51, dosed compound name RAMIPRIL, regimen Multiple dose, tissue Plasma
[2] = test system: Homo sapiens; assay: Pharmacokinetic parameters for Ramipril, and its active metabolite Ramiprilat evaluated after oral administration of Ramipril.; format: ADME, organism-based; conditions: in vivo, dosed compound id 51, dosed compound name RAMIPRIL, regimen Single dose; for F: at 5 mg

Question: With `C[C@H](N[C@@H](CCc1ccccc1)C(=O)O)C(=O)N1[C@H](C(=O)O)C[C@@H]2CCC[C@@H]21` [RAMIPRILAT] as the compound, how does the t1/2 [1] read?
Answer: Its t1/2 is 13 to 17 h.

Question: What about the F ([2]; tissue Plasma) of the same compound?
Answer: The F was 44%.

Question: What about the Tmax ([2]; tissue Plasma) of the same compound?
Answer: Its Tmax is 2 to 4 h.

Question: Which results are given for `CCOC(=O)[C@H](CCc1ccccc1)N[C@@H](C)C(=O)N1[C@H](C(=O)O)C[C@@H]2CCC[C@@H]21` [RAMIPRIL]?
Answer: F ([2]; tissue Plasma): 28%; Excretion ([2]; tissue Feces): 40%; Absorption ([2]; tissue Plasma): 50 to 60%; Tmax ([2]; tissue Plasma): 1 h; Excretion ([2]; tissue Urine): 60%
